Where “and” joins values, the source holds several entries; their conditions need not be identical. Equal values may be shown once.
CCCCCCCCCCO
Conditions | viscosity
293.15 K, 100 kPa | 14.27 mPa·s
293.15 K, 101 kPa | 13.04 mPa·s
293.15 K, 101.33 kPa | 14.55 mPa·s
298.15 K, 101.33 kPa | 11.57 mPa·s
300 K, 101 kPa | 10.3 mPa·s
303.15 K, 100 kPa | 9.708 mPa·s
303.15 K, 101.3 kPa | 8.835 mPa·s
308 K, 101 kPa | 7.646 mPa·s
308.15 K, 100 kPa | 8.108 mPa·s
308.15 K, 101.3 kPa | 8.39 mPa·s
308.15 K, 101.33 kPa | 7.918 mPa·s
310 K, 101 kPa | 7.09 mPa·s
313 K, 101 kPa | 6.396 mPa·s
313.15 K, 100 kPa | 6.846 mPa·s
313.15 K, 101 kPa | 6.846 mPa·s and 7.929 mPa·s and 6.845 mPa·s
313.15 K, 101.3 kPa | 6.955 mPa·s
313.15 K, 101.33 kPa | 6.955 mPa·s and 6.955 mPa·s and 6.955 mPa·s
318.15 K, 100 kPa | 5.879 mPa·s and 5.771 mPa·s and 5.785 mPa·s
318.15 K, 101.3 kPa | 5.878 mPa·s
320 K, 101 kPa | 5 mPa·s
323.15 K, 100 kPa | 4.918 mPa·s and 4.94 mPa·s

OCCOCCOCCO
viscosity
Conditions | 293.15 K | 298.1 K | 298.15 K | 308.15 K | 313.15 K | 318.15 K | 323.15 K
100 kPa | 42 mPa·s and 48.2 mPa·s and 48.4 mPa·s | – | 37.1 mPa·s and 37.8 mPa·s | 23.3 mPa·s | 19.8 mPa·s | 15.4 mPa·s and 15.83 mPa·s and 15.1 mPa·s | 13.23 mPa·s
101 kPa | – | 37.4 mPa·s | 37.1 mPa·s | 23.36 mPa·s and 21.2 mPa·s | 19.8 mPa·s | 15.59 mPa·s and 16.1 mPa·s | –
101.32 kPa | 46.1 mPa·s | – | – | – | 17.4 mPa·s | – | –

Reference: the CheMixHub viscosity set
